≈ marks a conversion by molar mass, not a printed value. Entries after “also recorded” stand apart in the source; their conditions may differ. Read-outs that look alike come from different tables or passages of the source.
What was measured:
rabbit platelets [1] = experiment: Effect on serotonin release from rabbit platelets; type: cell-based, white rabbit; settings: for inhibition at 10 µg/mL: 10.0 μg/ml; for inhibition at 30 µg/mL: 30.0 μg/ml
Procedure: Effect on serotonin release from rabbit platelets
9.25 vol of blood was sampled from the carotid artery of a white rabbit and placed in a FALCON 2070 tube (product of Falcon, Bector Dickinson) containing 0.75 vol of 77 mM ethylenediaminetetraacetic acid (EDTA). The thus obtained blood was centrifuged at 200 x g for 15 minutes to obtain platelet rich plasma (referred to as PRP hereinafter). This PRP was incubated with [2-^14 C]-serotonin (2 μCi/100 ml PRP) at 37° C. for an hour to incorporate [2-^14 C]-serotonin therein. Then, the PRP was centrifuged at 650 x g for 15 minutes to obtain platelet precipitates. After washing with Tris-buffered physiological saline (pH 7.4, containing 1 mM EDTA), the platelet precipitates were suspended in CA^++ -free Tyrode's soluton to reach a final density of 10^9 cells/ml.
To 0.475 ml of the thus prepared [2-^14 C]-serotoninlabeled platelet suspension was added 5 μl of a solution of the test compound. After incubation at 37° C. for 3 minutes, platelet activating factor (final concentration: 10^-9 M) was added as a stimulant, followed by incubation for further 3 minutes. 0.3 ml of the reaction solution was immediately taken and poured into 30 µl of ice-cold 0.1 mM formaldehyde5mM EDTA solution to terminate the reaction. After centrifugation at 3,000 rpm at 0° C. for 10 minutes, 250 μl of the supernatant was taken and the radioactivity was measured with a liquid scintillation counter.
*The rate of inhibition of serotonin release was calculated according to
the following equation.

rabbit platelets [2] = experiment: Effect on platelet aggregation of rabbit platelets; type: cell-based, white rabbit; settings: for IC50: Oryctolagus cuniculus, Platelet, 37° C., read-out: IC50 (concentration of the test compound showing 50% inhibition), platelet aggregation
Procedure: Effect on platelet aggreation of rabbit platelets
8.5 vol of blood was sampled from the carotid artery of a white rabbit and placed in a FALCON 2070 tube (product of Falcon, Bector Dickinson) containing 1.5 vol of citrate-dextrose soluton (71 mM citric acid, 85 mM sodium citrate and 111 mM dextrose). The thus obtained blood was centrifuged at 200×g for 15 minutes to obtain PRP. This PRP was centrifuged at 650×g for 10 minutes to obtain platelet precipitates. After washing with Ca^++ -free Tyrode's solution containing 2 mM ethyleneglycol bis(2-aminoethylether) tetraacetic acid (EGTA), the platelet precipitates were again centrifuged at 650 ×g for 10 minutes and washed. The thus obtained platelet precipitates were suspended in Ca^++ -free Tyrode's solution containing 0.25% bovine serum albumin to reach a density of 5×10^8 cells/ml. After the washed platelet suspension was allowed to stand at room temperature for about 30 minutes, 1 mM CaCl2 or 1 mM EGTA was added thereto and the mixture was allowed to stand for further 30 minutes. Then, platelet aggregation was measured.
The aggregation of platelets was determined using an aggregometer, AGGRETEC TE-500 (product of Erma Optical Co., Ltd.) to which the Born method was applied.
First, 10 μl of a test compound soluton was added to 0.2 ml of the washed platelet suspension, while stirring at 1,000 rmp and at 37° C. After incubation at 37° C. for 3 minutes, 10 μl of thrombin (final concentration: 0.05 U/ml) or platelet activating factor (final concentration: 10^-10 M) was added as a stimultant to initiate the reaction. The rate of inhibition of platelet aggregation of the test compound was calculated from the maximum aggregation rate obtained by the use of the test compound and the maximum aggregation rate obtained by the use of only the solvent used for dissolving the test compound, according to the following equation. [formula] A : Maximum aggregation rate of the solvent alone B : Maximum aggregation rate of the test compound
*Concentration of the test compound showing 50% inhibition.

Solubility = type: physicochemical
[3] = Oryctolagus cuniculus, stimulant platelet activating factor 10^-9 M, 37° C., read-out: Rate of inhibition of serotonin release
[4] = hexane, carbon tetrachloride, benzene, neutral water, acidic water

| SMILES | Inhibition of serotonin release from platelets (in words) (rabbit platelets [1]) | inhibition at 3 µg/mL (rabbit platelets [1]; Oryctolagus cuniculus, 3.0 μg/ml, stimulant platelet activating factor 10^-9 M, 37° C., read-out: Rate of inhibition of serotonin release) [%] | inhibition at 10 µg/mL (rabbit platelets [1]; [3]) [%] | inhibition at 30 µg/mL (rabbit platelets [1]; [3]) [%] | Inhibition of platelet aggregation (in words) (rabbit platelets [2]) | IC50 (rabbit platelets [2]; stimulant platelet activating factor, final concentration 10^-10 M) [µg/mL] | IC50 (rabbit platelets [2]; stimulant thrombin, final concentration 0.05 U/ml) [µg/mL] | Solubility (Solubility; KS-501: chloroform, ethyl acetate, acetonitrile, methanol, n-butanol, acetone, tetrahydrofuran, dioxane, dimethylsulfoxide, pyridine, monoethanolamine, acetic acid, alkaline water) | Solubility (Solubility; [4]) | inhibition at 50 µg/mL (rabbit platelets [1]; Oryctolagus cuniculus, 50.0 μg/ml, stimulant platelet activating factor 10^-9 M, 37° C., read-out: Rate of inhibition of serotonin release) [%] | Solubility (Solubility; KS-502: chloroform, ethyl acetate, acetonitrile) |
| --- | --- | --- | --- | --- | --- | --- | --- | --- | --- | --- | --- |
| CCCCCCCc1cc(O)cc(OC(=O)c2c(CCCCCCC)cc(O)cc2OC2OC(C(O)CO)C(O)C2O)c1 (stereo not drawn) [KS-501] | inhibitory activity on serotonin release from platelets; also recorded: inhibited serotonin release from rabbit platelets, depending on the concentration | 10.2 | 27.1 | 66.4 | inhibitory activity on platelet aggregation; also recorded: inhibited platelet aggregation stimulated with thrombin and platelet activating factor | 38 (≈ 62.8 µM) | 57 (≈ 94.3 µM) | Readily soluble | Insoluble | – | – |
| CCCCCCCc1cc(OC(=O)c2c(CCCCCCC)cc(O)cc2OC2OC(C(O)CO)C(O)C2O)cc(O)c1C(=O)O (stereo not drawn) [KS-502] | inhibitory activity on serotonin release from platelets; also recorded: inhibited serotonin release from rabbit platelets, depending on the concentration | – | 2.7 | 28.9 | – | – | – | – | Insoluble | 51.4 | Soluble |

Reference: patent US4868159A, “Novel substances KS-501 and KS-502 and process for their preparation” (Kyowa Hakko Kogyo Co., Ltd., priority 1987, dated 1989)
